Data taken from ChEMBL document CHEMBL1137477, “Preparation and in vitro anti-staphylococcal activity of novel 11-deoxy-11-hydroxyiminorifamycins” (2007).
Values after ≈ are worked out from the molar mass of the structure shown.

Experiments:
Type in all cases: functional
[1] = tested on: Staphylococcus aureus; assay: Antibacterial activity against rifamycin-sensitive Staphylococcus aureus CB190 ATCC 29213
[2] = tested on: Staphylococcus aureus; assay: Antibacterial activity against rifamycin-resistance Staphylococcus aureus CB372
[3] = tested on: Staphylococcus aureus; assay: Antibacterial activity against rifamycin-resistance Staphylococcus aureus CB370

Row | Structure (SMILES) | MIC [1] [µg/mL] | MIC [2] [µg/mL] | MIC [3] [µg/mL]
1 | CO[C@H]1/C=C/O[C@@]2(C)Oc3c(C)c(O)c4c(=O)c(c5oc6cc(N7CCN(C(C)C)CC7)cc(O)c6nc-5c4c3/C2=N/O)NC(=O)/C(C)=C\C=C\[C@H](C)[C@H](O)[C@@H](C)[C@@H](O)[C@@H](C)[C@H](OC(C)=O)[C@@H]1C | 0.008 (≈ 0.00849 µM) | 1 (≈ 1.06 µM) | 32 (≈ 34 µM)
2 | CO[C@H]1/C=C/O[C@@]2(C)Oc3c(C)c(O)c4c(=O)c(c5oc6cc(N7CCN(CC(C)C)CC7)cc(O)c6nc-5c4c3/C2=N/O)NC(=O)/C(C)=C\C=C\[C@H](C)[C@H](O)[C@@H](C)[C@@H](O)[C@@H](C)[C@H](OC(C)=O)[C@@H]1C | 0.004 (≈ 0.00418 µM) | 2 (≈ 2.09 µM) | 32 (≈ 33.5 µM)
3 | CO[C@H]1/C=C/O[C@@]2(C)Oc3c(C)c(O)c4c(=O)c(c5oc6cc(N7CCN(CC(C)C)CC7)cc(C)c6nc-5c4c3/C2=N/O)NC(=O)/C(C)=C\C=C\[C@H](C)[C@H](O)[C@@H](C)[C@@H](O)[C@@H](C)[C@H](OC(C)=O)[C@@H]1C | 0.008 (≈ 0.00838 µM) | 4 (≈ 4.19 µM) | > 64
4 | CO[C@H]1/C=C/O[C@@]2(C)Oc3c(C)c(O)c4c(=O)c(c5oc6cc(N7CCN(C)CC7)cc(C)c6nc-5c4c3/C2=N/O)NC(=O)/C(C)=C\C=C\[C@H](C)[C@H](O)[C@@H](C)[C@@H](O)[C@@H](C)[C@H](OC(C)=O)[C@@H]1C | 0.004 (≈ 0.00439 µM) | 1 (≈ 1.1 µM) | 16 (≈ 17.5 µM)
5 | CCN1CCN(c2cc(O)c3nc4c5c6c7c(C)c(O)c5c(=O)c(c-4oc3c2)NC(=O)/C(C)=C\C=C\[C@H](C)[C@H](O)[C@@H](C)[C@@H](O)[C@@H](C)[C@H](OC(C)=O)[C@H](C)[C@@H](OC)/C=C/O[C@@](C)(O7)/C6=N\O)CC1 | 0.008 (≈ 0.00862 µM) | 2 (≈ 2.16 µM) | 32 (≈ 34.5 µM)
6 | CCCCN1CCN(c2cc(O)c3nc4c5c6c7c(C)c(O)c5c(=O)c(c-4oc3c2)NC(=O)/C(C)=C\C=C\[C@H](C)[C@H](O)[C@@H](C)[C@@H](O)[C@@H](C)[C@H](OC(C)=O)[C@H](C)[C@@H](OC)/C=C/O[C@@](C)(O7)/C6=N\O)CC1 | 0.004 (≈ 0.00418 µM) | 2 (≈ 2.09 µM) | 16 (≈ 16.7 µM)
7 | CO[C@H]1/C=C/O[C@@]2(C)Oc3c(C)c(O)c4c(=O)c(c5oc6cc(N7CCN(CC(C)C)CC7)ccc6nc-5c4c3/C2=N/O)NC(=O)/C(C)=C\C=C\[C@H](C)[C@H](O)[C@@H](C)[C@@H](O)[C@@H](C)[C@H](OC(C)=O)[C@@H]1C | 0.004 (≈ 0.00425 µM) | 0.5 (≈ 0.532 µM) | 8 (≈ 8.51 µM)
8 | CO[C@H]1/C=C/O[C@@]2(C)Oc3c(C)c(O)c4c(c3/C2=N/O)C(=O)C=C(NC(=O)/C(C)=C\C=C\[C@H](C)[C@H](O)[C@@H](C)[C@@H](O)[C@@H](C)[C@H](OC(C)=O)[C@@H]1C)C4=O | 0.002 (≈ 0.00281 µM) | 0.5 (≈ 0.703 µM) | 32 (≈ 45 µM)
9 | CO[C@H]1/C=C/O[C@@]2(C)Oc3c(C)c(O)c4c(=O)c(c5oc6cc(N7CCN(CC8CCCCC8)CC7)ccc6nc-5c4c3/C2=N/O)NC(=O)/C(C)=C\C=C\[C@H](C)[C@H](O)[C@@H](C)[C@@H](O)[C@@H](C)[C@H](OC(C)=O)[C@@H]1C | 0.008 (≈ 0.00816 µM) | 2 (≈ 2.04 µM) | 16 (≈ 16.3 µM)
10 | CO[C@H]1/C=C/O[C@@]2(C)Oc3c(C)c(O)c4c(=O)c(c5oc6cc(N7CCN(CC8CCCCC8)CC7)cc(O)c6nc-5c4c3/C2=N/O)NC(=O)/C(C)=C\C=C\[C@H](C)[C@H](O)[C@@H](C)[C@@H](O)[C@@H](C)[C@H](OC(C)=O)[C@@H]1C | 0.008 (≈ 0.00803 µM) | 8 (≈ 8.03 µM) | 8 (≈ 8.03 µM)
11 | CO[C@H]1/C=C/O[C@@]2(C)Oc3c(C)c(O)c4c(=O)c(c5oc6cc(N7CCN(CC8CCN(C)CC8)CC7)cc(O)c6nc-5c4c3/C2=N/O)NC(=O)/C(C)=C\C=C\[C@H](C)[C@H](O)[C@@H](C)[C@@H](O)[C@@H](C)[C@H](OC(C)=O)[C@@H]1C | 0.13 (≈ 0.129 µM) | 4 (≈ 3.96 µM) | 32 (≈ 31.6 µM)
12 | CO[C@H]1/C=C/O[C@@]2(C)Oc3c(C)c(O)c4c(=O)c(c5oc6cc(N7CCN(C(C)C)CC7)ccc6nc-5c4c3/C2=N/O)NC(=O)/C(C)=C\C=C\[C@H](C)[C@H](O)[C@@H](C)[C@@H](O)[C@@H](C)[C@H](OC(C)=O)[C@@H]1C | 0.0005 (≈ 0.00054 µM) | 0.12 (≈ 0.13 µM) | 8 (≈ 8.64 µM)
13 | CO[C@H]1/C=C/O[C@@]2(C)Oc3c(C)c(O)c4c(=O)c(c5oc6cc(N7CCN(C)CC7)cc(O)c6nc-5c4c3/C2=N/O)NC(=O)/C(C)=C\C=C\[C@H](C)[C@H](O)[C@@H](C)[C@@H](O)[C@@H](C)[C@H](OC(C)=O)[C@@H]1C | 0.004 (≈ 0.00438 µM) | 1 (≈ 1.09 µM) | 32 (≈ 35 µM)
14 | CO[C@H]1/C=C/O[C@@]2(C)Oc3c(C)c(O)c4c(=O)c(c5oc6cc(N7CCN(CC(C)C)CC7)cc(O)c6nc-5c4c3C2=O)NC(=O)/C(C)=C\C=C\[C@H](C)[C@H](O)[C@@H](C)[C@@H](O)[C@@H](C)[C@H](OC(C)=O)[C@@H]1C [RIFALAZIL] | 0.004 (≈ 0.00425 µM) | 2 (≈ 2.13 µM) | 32 (≈ 34 µM)
15 | CO[C@H]1/C=C/O[C@@]2(C)Oc3c(C)c(O)c4c(O)c(c(/C=N/N5CCN(C)CC5)c(O)c4c3C2=O)NC(=O)/C(C)=C\C=C\[C@H](C)[C@H](O)[C@@H](C)[C@@H](O)[C@@H](C)[C@H](OC(C)=O)[C@@H]1C [RIFAMPIN] | 0.008 (≈ 0.00972 µM) | 16 (≈ 19.4 µM) | > 64
16 | CO[C@H]1/C=C/O[C@@]2(C)Oc3c(C)c(O)c4c(c3C2=O)C(=O)C=C(NC(=O)/C(C)=C\C=C\[C@H](C)[C@H](O)[C@@H](C)[C@@H](O)[C@@H](C)[C@H](OC(C)=O)[C@@H]1C)C4=O [RIFAMYCIN S] | 0.016 (≈ 0.023 µM) | 4 (≈ 5.75 µM) | > 64
17 | CO[C@H]1/C=C/O[C@@]2(C)Oc3c(C)c(O)c4c(O)c(cc(O)c4c3C2=O)NC(=O)/C(C)=C\C=C\[C@H](C)[C@H](O)[C@@H](C)[C@@H](O)[C@@H](C)[C@H](OC(C)=O)[C@@H]1C [RIFAMYCIN] | 0.016 (≈ 0.0229 µM) | 2 (≈ 2.87 µM) | > 64
